Experimental data: ChEMBL document CHEMBL1909046, “DrugMatrix in vitro pharmacology data”

Experiments:
[1] = target: Protein kinase C alpha type (Homo sapiens, UniProt P17252); assay type: cell-based; conditions: sf9;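 also: inhibition of PKCalpha kinase activity measured in an enzyme assay with histone as the phosphorylation substrate; in other assays of this panel Not Active means under 50% inhibition at 10 µM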
[2] = target: T1, Endothelin-1 receptor (Homo sapiens, UniProt P25101); assay type: cell membranes, Membrane; conditions: cho-k1; also: in other assays of this panel Not Active means under 50% inhibition at 10 µM
T1 sequence (P25101 whole entry): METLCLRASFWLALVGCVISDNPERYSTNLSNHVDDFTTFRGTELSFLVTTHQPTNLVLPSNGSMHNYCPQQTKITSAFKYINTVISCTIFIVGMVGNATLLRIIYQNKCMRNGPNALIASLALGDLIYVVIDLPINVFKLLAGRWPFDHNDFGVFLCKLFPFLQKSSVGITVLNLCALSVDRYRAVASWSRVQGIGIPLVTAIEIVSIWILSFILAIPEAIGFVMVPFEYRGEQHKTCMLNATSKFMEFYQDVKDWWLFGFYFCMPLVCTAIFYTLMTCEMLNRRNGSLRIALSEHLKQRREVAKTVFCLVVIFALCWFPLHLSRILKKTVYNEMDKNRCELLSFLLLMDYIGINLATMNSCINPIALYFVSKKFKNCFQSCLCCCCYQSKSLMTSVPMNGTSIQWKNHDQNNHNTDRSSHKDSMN

[3] = target: T2, C-X-C chemokine receptor type 1 (Homo sapiens, UniProt P25024); also: in other assays of this panel Not Active means under 50% inhibition at 10 µM
T2 sequence (P25024 whole entry): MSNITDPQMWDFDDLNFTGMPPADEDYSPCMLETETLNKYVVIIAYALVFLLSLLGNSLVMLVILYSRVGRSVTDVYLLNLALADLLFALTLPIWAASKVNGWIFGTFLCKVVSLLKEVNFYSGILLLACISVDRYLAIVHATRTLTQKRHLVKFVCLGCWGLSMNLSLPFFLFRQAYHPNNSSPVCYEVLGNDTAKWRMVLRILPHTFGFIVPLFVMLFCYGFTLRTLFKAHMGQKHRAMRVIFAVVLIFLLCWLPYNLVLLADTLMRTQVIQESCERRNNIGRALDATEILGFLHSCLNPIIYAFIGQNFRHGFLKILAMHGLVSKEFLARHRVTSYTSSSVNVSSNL

[4] = target: T3, Leukotriene C4 synthase (Cavia porcellus, UniProt A6XA80); experiment: biochemical; assay type: tissue-based, Lung;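 also: enzyme inhibition assay of leukotriene C4 synthase, using LTA4 as the substrate; in other assays of this panel Not Active means under 50% inhibition at 10 µM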
T3 sequence (A6XA80 whole entry): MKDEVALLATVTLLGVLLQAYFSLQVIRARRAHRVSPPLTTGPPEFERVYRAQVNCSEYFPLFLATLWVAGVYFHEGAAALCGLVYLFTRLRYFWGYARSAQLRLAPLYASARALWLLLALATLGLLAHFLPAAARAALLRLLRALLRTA

[5] = target: T4, Polyunsaturated fatty acid lipoxygenase ALOX15 (Oryctolagus cuniculus, UniProt P12530); experiment: biochemical; assay type: tissue-based, Reticulocytes
T4 sequence (P12530 whole entry): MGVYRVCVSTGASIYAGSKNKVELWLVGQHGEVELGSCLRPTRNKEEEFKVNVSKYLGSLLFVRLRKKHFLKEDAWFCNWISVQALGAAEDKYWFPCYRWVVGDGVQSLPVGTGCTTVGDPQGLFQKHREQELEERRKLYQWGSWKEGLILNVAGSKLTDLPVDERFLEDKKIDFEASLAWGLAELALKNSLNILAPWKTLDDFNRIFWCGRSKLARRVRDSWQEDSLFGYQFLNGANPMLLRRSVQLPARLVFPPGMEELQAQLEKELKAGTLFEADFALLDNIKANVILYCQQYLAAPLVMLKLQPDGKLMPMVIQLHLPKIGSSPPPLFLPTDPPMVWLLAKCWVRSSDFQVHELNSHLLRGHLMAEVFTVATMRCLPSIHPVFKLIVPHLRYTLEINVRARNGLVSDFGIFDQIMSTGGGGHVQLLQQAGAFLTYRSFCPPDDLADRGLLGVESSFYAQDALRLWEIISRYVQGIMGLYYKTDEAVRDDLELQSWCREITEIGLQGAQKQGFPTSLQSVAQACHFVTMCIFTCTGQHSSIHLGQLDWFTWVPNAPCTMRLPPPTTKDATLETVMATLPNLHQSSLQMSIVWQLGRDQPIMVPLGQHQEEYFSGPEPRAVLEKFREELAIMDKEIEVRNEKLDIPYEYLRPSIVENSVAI

[6] = target: Acetylcholinesterase (Homo sapiens, UniProt P22303); experiment: DRUGMATRIX: Acetylcholinesterase enzyme inhibition (substrate: acetylthiocholine); assay type: cell-based, HEK293; conditions: hek293; Not Active = under 50% inhibition at 10 µM
[7] = target: T5, 5-hydroxytryptamine receptor 2C (Homo sapiens, UniProt P28335); experiment: DRUGMATRIX: Serotonin (5-Hydroxytryptamine) 5-HT2C radioligand binding (ligand: [3H] Mesulergine); assay type: cell membranes, CHO-K1, Membrane; conditions: cho-k1; Not Active = under 50% inhibition at 10 µM
T5 sequence (P28335 whole entry): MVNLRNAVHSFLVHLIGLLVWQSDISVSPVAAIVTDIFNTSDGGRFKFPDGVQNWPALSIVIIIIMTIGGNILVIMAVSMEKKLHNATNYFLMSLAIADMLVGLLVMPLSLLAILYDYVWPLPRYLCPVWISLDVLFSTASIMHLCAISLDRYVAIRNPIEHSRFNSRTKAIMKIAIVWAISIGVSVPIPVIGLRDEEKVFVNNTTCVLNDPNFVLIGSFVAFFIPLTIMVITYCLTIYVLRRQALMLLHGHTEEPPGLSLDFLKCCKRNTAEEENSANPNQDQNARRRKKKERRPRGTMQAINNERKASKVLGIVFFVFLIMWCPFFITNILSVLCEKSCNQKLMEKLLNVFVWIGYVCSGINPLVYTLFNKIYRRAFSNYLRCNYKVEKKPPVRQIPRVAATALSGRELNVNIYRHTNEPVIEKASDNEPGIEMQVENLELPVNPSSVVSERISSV

[8] = DRUGMATRIX: Atrial Natriuretic Factor (ANF) radioligand binding (ligand: [125I] ANF (rat)); assay type: cell membranes, Cavia porcellus, Dunkin-Hartley, Adrenal gland, Membrane; conditions: Not Active = under 50% inhibition at 10 µM
[9] = target: T6, Alpha-1B adrenergic receptor (Rattus norvegicus, UniProt P15823); experiment: DRUGMATRIX: Alpha-1B adrenergic receptor radioligand binding (ligand: prazosin); assay type: cell membranes, Wistar, Liver, Membrane; conditions: Not Active = under 50% inhibition at 10 µM
T6 sequence (P15823 whole entry): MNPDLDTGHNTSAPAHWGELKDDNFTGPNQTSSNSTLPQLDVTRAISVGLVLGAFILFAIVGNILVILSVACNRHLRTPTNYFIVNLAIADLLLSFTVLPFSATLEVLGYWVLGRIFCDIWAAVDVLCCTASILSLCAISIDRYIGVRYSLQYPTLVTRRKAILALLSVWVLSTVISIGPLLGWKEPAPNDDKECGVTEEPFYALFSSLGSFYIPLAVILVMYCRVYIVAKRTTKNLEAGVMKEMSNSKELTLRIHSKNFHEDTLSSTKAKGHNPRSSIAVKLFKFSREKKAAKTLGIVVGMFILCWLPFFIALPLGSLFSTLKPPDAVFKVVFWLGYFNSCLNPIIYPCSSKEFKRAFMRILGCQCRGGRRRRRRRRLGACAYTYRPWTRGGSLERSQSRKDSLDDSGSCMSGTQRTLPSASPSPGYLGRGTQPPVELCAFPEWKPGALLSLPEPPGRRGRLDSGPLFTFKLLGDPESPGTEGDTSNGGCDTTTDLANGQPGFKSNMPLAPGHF

Sequence of Acetylcholinesterase (P22303 whole entry): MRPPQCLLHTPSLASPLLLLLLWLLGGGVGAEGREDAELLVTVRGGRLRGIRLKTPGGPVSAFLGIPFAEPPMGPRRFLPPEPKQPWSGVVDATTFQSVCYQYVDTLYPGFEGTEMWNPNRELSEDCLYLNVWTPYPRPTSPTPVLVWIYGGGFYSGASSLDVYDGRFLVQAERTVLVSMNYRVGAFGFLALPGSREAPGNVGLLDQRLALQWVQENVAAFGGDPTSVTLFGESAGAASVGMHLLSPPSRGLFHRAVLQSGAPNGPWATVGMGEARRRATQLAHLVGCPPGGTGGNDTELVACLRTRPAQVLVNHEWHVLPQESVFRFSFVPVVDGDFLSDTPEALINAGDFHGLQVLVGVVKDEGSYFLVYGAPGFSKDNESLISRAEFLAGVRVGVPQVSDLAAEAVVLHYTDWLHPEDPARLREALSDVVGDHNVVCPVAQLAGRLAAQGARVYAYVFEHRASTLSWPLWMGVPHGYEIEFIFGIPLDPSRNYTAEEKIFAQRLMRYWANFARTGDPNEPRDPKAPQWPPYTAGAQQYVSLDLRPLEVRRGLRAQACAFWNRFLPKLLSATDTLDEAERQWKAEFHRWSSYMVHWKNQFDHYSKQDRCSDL

## NNc1ccccc1 [PHENYLHYDRAZINE]
[1]
  IC50: Not Active
[2]
  IC50: Not Active
[3]
  IC50: Not Active
[4]
  IC50: Not Active
[5]; read-out: IC50
  IC50: 1670 nM
[6]
  IC50: Not Active
[7]
  IC50: Not Active
[8]
  IC50: Not Active
  Ki: Not Active
[9]
  IC50: Not Active

## CC(=O)[C@H]1CC[C@H]2[C@@H]3CCC4=CC(=O)CC[C@]4(C)[C@H]3CC[C@]12C [PROGESTERONE]
[1]
  IC50: Not Active
[2]
  IC50: Not Active
[3]
  IC50: Not Active
[4]
  IC50: Not Active
[5]; reticulocytes
  IC50: Not Active
[6]
  IC50: Not Active
[7]
  IC50: Not Active
[8]
  IC50: Not Active
  Ki: Not Active
[9]
  IC50: Not Active

## NC(=O)c1ncn([C@@H]2O[C@H](CO)[C@@H](O)[C@H]2O)n1 [RIBAVIRIN]
[1]
  IC50: Not Active
[2]
  IC50: Not Active
[3]
  IC50: Not Active
[4]
  IC50: Not Active
[5]; reticulocytes
  IC50: Not Active
[6]
  IC50: Not Active
[7]
  IC50: Not Active
[8]
  IC50: Not Active
  Ki: Not Active
[9]
  IC50: Not Active

## O=[N+]([O-])c1cc([As](=O)(O)O)ccc1O [ROXARSONE]
[1]
  IC50: Not Active
  Ki: Not Active
[2]
  IC50: Not Active
  Ki: Not Active
[3]
  IC50: Not Active
  Ki: Not Active
[4]
  IC50: Not Active
  Ki: Not Active
[5]; reticulocytes
  IC50: Not Active
  Ki: Not Active
[6]
  IC50: Not Active
  Ki: Not Active
[7]
  IC50: Not Active
  Ki: Not Active
[8]
  IC50: Not Active
  Ki: Not Active
[9]
  IC50: Not Active
  Ki: Not Active

## CC[C@H]1OC(=O)[C@H](C)[C@@H](O[C@H]2C[C@@](C)(OC)[C@@H](O)[C@H](C)O2)[C@H](C)[C@@H](O[C@@H]2O[C@H](C)C[C@H](N(C)C)[C@H]2O)[C@](C)(O)C[C@@H](C)/C(=N\OCOCCOC)[C@H](C)[C@@H](O)[C@]1(C)O [ROXITHROMYCIN]
[1]
  IC50: Not Active
[2]
  IC50: Not Active
[3]
  IC50: Not Active
[4]
  IC50: Not Active
[5]; reticulocytes
  IC50: Not Active
[6]
  IC50: Not Active
[7]
  IC50: Not Active
[8]
  IC50: Not Active
  Ki: Not Active
[9]; read-out: IC50
  IC50: 989 nM
[9]; read-out: Ki
  Ki: 548 nM

## NC(=O)c1ccccc1O [SALICYLAMIDE]
[1]
  IC50: Not Active
[2]
  IC50: Not Active
[3]
  IC50: Not Active
[4]
  IC50: Not Active
[5]; reticulocytes
  IC50: Not Active
[6]
  IC50: Not Active
[7]
  IC50: Not Active
[8]
  IC50: Not Active
  Ki: Not Active
[9]
  IC50: Not Active

## Cc1ncc([N+](=O)[O-])n1CC(C)O (centres undefined) [SECNIDAZOLE]
[1]
  IC50: Not Active
[2]
  IC50: Not Active
[3]
  IC50: Not Active
[4]
  IC50: Not Active
[5]; reticulocytes
  IC50: Not Active
[6]
  IC50: Not Active
[7]
  IC50: Not Active
[8]
  IC50: Not Active
  Ki: Not Active
[9]
  IC50: Not Active

## CN[C@@H]1[C@@H](O)[C@@H](O[C@@H]2[C@@H](O)[C@H](O[C@H]3OC(CN)=CC[C@H]3N)[C@@H](N)C[C@H]2N)OC[C@]1(C)O [SISOMICIN]
[1]
  IC50: Not Active
[2]
  IC50: Not Active
[3]
  IC50: Not Active
[4]
  IC50: Not Active
[5]; reticulocytes
  IC50: Not Active
[6]
  IC50: Not Active
[7]
  IC50: Not Active
[8]
  IC50: Not Active
  Ki: Not Active
[9]
  IC50: Not Active

## CC(=O)S[C@@H]1CC2=CC(=O)CC[C@]2(C)[C@H]2CC[C@@]3(C)[C@@H](CC[C@@]34CCC(=O)O4)[C@H]12 [SPIRONOLACTONE]
[1]
  IC50: Not Active
[2]
  IC50: Not Active
[3]
  IC50: Not Active
[4]
  IC50: Not Active
[5]; reticulocytes
  IC50: Not Active
[6]
  IC50: Not Active
[7]
  IC50: Not Active
[8]
  IC50: Not Active
  Ki: Not Active
[9]
  IC50: Not Active

## C[C@]12Cc3c[nH]nc3C[C@@H]1CC[C@@H]1[C@@H]2CC[C@@]2(C)[C@H]1CC[C@]2(C)O [STANOZOLOL]
[1]
  IC50: Not Active
[2]
  IC50: Not Active
[3]
  IC50: Not Active
[4]
  IC50: Not Active
[5]; reticulocytes
  IC50: Not Active
[6]
  IC50: Not Active
[7]
  IC50: Not Active
[8]
  IC50: Not Active
  Ki: Not Active
[9]
  IC50: Not Active

## CN(N=O)C(=O)N[C@@H](C=O)[C@@H](O)[C@H](O)[C@H](O)CO [STREPTOZOCIN]
[1]
  IC50: Not Active
[2]
  IC50: Not Active
[3]
  IC50: Not Active
[4]
  IC50: Not Active
[5]; reticulocytes
  IC50: Not Active
[6]
  IC50: Not Active
[7]
  IC50: Not Active
[8]
  IC50: Not Active
  Ki: Not Active
[9]
  IC50: Not Active
